Data as given in the supplement of paper PMC11451515.

Tested on: NOMO1
Experiment: cell viability relative to DMSO control; higher = less cytotoxic
Settings: 48 h
Summary of the method: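 Three leukemia lines were tested: NOMO1 and SEM at 500 cells/well and P12-Ichikawa at 1000 cells/well. Each was adapted for at least four passages in each medium and seeded in 5 μl in 1536-well plates, and library compounds in DMSO were pin-dosed from 47 μM to 0.79 nM in 11 threefold steps. After 48 h at 37°C, CellTiter-Glo One luminescence was read. Viability is a percentage relative to DMSO wells on each plate, with cell-free wells as background.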

[1] = HPLM + 10% dialyzed FBS, 0.000781 µM
[2] = HPLM + 10% dialyzed FBS, 0.00234 µM
[3] = HPLM + 10% dialyzed FBS, 0.00702 µM
[4] = HPLM + 10% dialyzed FBS, 0.0211 µM
[5] = HPLM + 10% dialyzed FBS, 0.0632 µM
[6] = HPLM + 10% dialyzed FBS, 0.19 µM
[7] = HPLM + 10% dialyzed FBS, 0.569 µM
[8] = HPLM + 10% dialyzed FBS, 1.71 µM
[9] = HPLM + 10% dialyzed FBS, 5.12 µM
[10] = HPLM + 10% dialyzed FBS, 15.4 µM
[11] = HPLM + 10% dialyzed FBS, 46.1 µM
[12] = RPMI 5 mM glucose + 10% FBS, 0.000781 µM
[13] = RPMI 5 mM glucose + 10% FBS, 0.00234 µM
[14] = RPMI 5 mM glucose + 10% FBS, 0.00702 µM
[15] = RPMI 5 mM glucose + 10% FBS, 0.0211 µM
[16] = RPMI 5 mM glucose + 10% FBS, 0.0632 µM
[17] = RPMI 5 mM glucose + 10% FBS, 0.19 µM
[18] = RPMI 5 mM glucose + 10% FBS, 0.569 µM
[19] = RPMI 5 mM glucose + 10% FBS, 1.71 µM
[20] = RPMI 5 mM glucose + 10% FBS, 5.12 µM
[21] = RPMI 5 mM glucose + 10% FBS, 15.4 µM
[22] = RPMI 5 mM glucose + 10% FBS, 46.1 µM
[23] = RPMI 5 mM glucose + 10% dialyzed FBS, 0.000781 µM
[24] = RPMI 5 mM glucose + 10% dialyzed FBS, 0.00234 µM
[25] = RPMI 5 mM glucose + 10% dialyzed FBS, 0.00702 µM
[26] = RPMI 5 mM glucose + 10% dialyzed FBS, 0.0211 µM
[27] = RPMI 5 mM glucose + 10% dialyzed FBS, 0.0632 µM
[28] = RPMI 5 mM glucose + 10% dialyzed FBS, 0.19 µM
[29] = RPMI 5 mM glucose + 10% dialyzed FBS, 0.569 µM
[30] = RPMI 5 mM glucose + 10% dialyzed FBS, 1.71 µM
[31] = RPMI 5 mM glucose + 10% dialyzed FBS, 5.12 µM
[32] = RPMI 5 mM glucose + 10% dialyzed FBS, 15.4 µM
[33] = RPMI 5 mM glucose + 10% dialyzed FBS, 46.1 µM

SMILES	cell viability [1] [%]	cell viability [2] [%]	cell viability [3] [%]	cell viability [4] [%]	cell viability [5] [%]	cell viability [6] [%]	cell viability [7] [%]	cell viability [8] [%]	cell viability [9] [%]	cell viability [10] [%]	cell viability [11] [%]	cell viability [12] [%]	cell viability [13] [%]	cell viability [14] [%]	cell viability [15] [%]	cell viability [16] [%]	cell viability [17] [%]	cell viability [18] [%]	cell viability [19] [%]	cell viability [20] [%]	cell viability [21] [%]	cell viability [22] [%]	cell viability [23] [%]	cell viability [24] [%]	cell viability [25] [%]	cell viability [26] [%]	cell viability [27] [%]	cell viability [28] [%]	cell viability [29] [%]	cell viability [30] [%]	cell viability [31] [%]	cell viability [32] [%]	cell viability [33] [%]
Oc1ccc2ccccc2c1SSc1c(O)ccc2ccccc12	94.5	101	101	126	124	135	111	125	114	92.8	103	98.9	94.4	111	119	108	109	110	107	96.9	104	96.4	85.3	93.9	117	116	105	105	109	105	96.3	100	78.9
CC1=C(/C=C/C(C)=C/C=C/C(C)=C/C(=O)O)C(C)(C)CCC1	106	106	144	126	114	127	110	104	98	84.3	80.3	128	124	114	111	118	122	128	110	94	99.1	68.4	–	–	–	–	–	–	–	–	–	–	–
CCOC(=O)[C@H]1O[C@@H]1C(=O)N[C@@H](CC(C)C)C(=O)NCCC(C)C	–	–	–	–	–	–	–	–	–	–	–	114	107	107	117	123	116	114	104	102	92.2	12.6	114	112	121	126	106	121	113	109	102	112	15.1
Cc1cccc(-c2[nH]c(C(C)(C)C)nc2-c2ccc3c(c2)OCO3)n1	94.7	105	107	114	115	95.4	104	114	103	24	11.9	97.4	106	100	93.4	101	92.7	100	92.6	86.3	11.5	8.98	101	92.1	94.4	94.3	107	86.9	92.8	97.2	97.3	13.9	9.64
Cc1cccc2c1CC[C@H](CN1CCC(c3c(Cl)cccc3Cl)CC1)C[C@@H]2O	99.8	115	116	126	133	154	150	136	116	97.9	83.9	–	–	–	–	–	–	–	–	–	–	–	103	124	130	148	129	145	143	103	82	70.2	61.5
CCOC(=O)N[C@@H]1CC[C@@H]2[C@@H](C1)C[C@H]1C(=O)O[C@H](C)[C@H]1[C@H]2/C=C/c1ccc(-c2cccc(F)c2)cn1	–	–	–	–	–	–	–	–	–	–	–	114	115	122	128	127	121	120	131	127	142	79	125	112	122	109	115	118	133	129	131	125	76.8
COc1ccc(C2(C#N)CCC(C(=O)O)CC2)cc1OC1CCCC1 (stereo not given)	91	109	95	116	120	123	113	113	111	102	108	82.4	91.8	84.9	87.5	94.1	96.8	96.3	85.7	101	89.6	90.6	99.5	105	98.3	102	98.2	95	107	101	101	100	105
Oc1ccc(-c2ccc(-c3cc(Nc4cccc(CNC5CC5)c4)[nH]n3)cc2)c(O)c1	93.9	104	108	116	127	116	102	93.4	41.4	40	60.6	104	99	103	97.4	115	109	114	96.7	49.5	27.8	30.8	99.3	94.4	106	109	107	102	119	107	71.1	26	31.1
